Measurements taken from ChEMBL document CHEMBL4350985, “1,3-Dioxane as a scaffold for potent and selective 5-HT1AR agonist with in-vivo anxiolytic, anti-depressant and anti-nociceptive activity” (Eur J Med Chem, 2019).
Calls of active or inactive are those of the source. No cut-off for these calls is given here.

Columns and labels:
Rattus norvegicus [1] = test: Anxiolytic activity at Sprague-Dawley rat assessed as increase in time spent in open arm at 0.5 mg/kg, ip by EPM test relative to control; assay type: functional
Rattus norvegicus [2] = test: Antidepressant activity in Sprague-Dawley rat assessed as time spent on climbing at 0.5 mg/kg, ip by forced swim test; assay type: functional, organism-based
[3] = Half life in Sprague-Dawley rat plasma at 10 mg/kg, po measured upto 480 mins by LC/MS-MS analysis; assay type: ADME, organism-based
Rattus norvegicus [4] = test: Anxiolytic activity at Sprague-Dawley rat assessed as number of open arm entries at 0.5 mg/kg, ip by EPM test; assay type: functional, organism-based
Rattus norvegicus [5] = test: Antidepressant activity in Sprague-Dawley rat assessed as increase in time spent in swimming at 0.5 mg/kg, ip by forced swim test; assay type: functional, organism-based
Rattus norvegicus [6] = test: Effect on locomotory activity in Sprague-Dawley rat assessed as distance travelled at 0.5 mg/kg, ip by open field test; assay type: functional, organism-based
Rattus norvegicus [7] = test: Antidepressant activity in Sprague-Dawley rat assessed as decrease in time of immobilization at 0.5 mg/kg, ip by forced swim test; assay type: functional, organism-based
[8] = target: T1, Alpha-1A adrenergic receptor (Rattus norvegicus) (UniProt P43140); test: Antagonist activity at alpha-1a adrenergic receptor in Wistar rat prostatic vas deferens assessed as inhibition of (-)-noradrenaline-induced contraction
T1 sequence (whole entry): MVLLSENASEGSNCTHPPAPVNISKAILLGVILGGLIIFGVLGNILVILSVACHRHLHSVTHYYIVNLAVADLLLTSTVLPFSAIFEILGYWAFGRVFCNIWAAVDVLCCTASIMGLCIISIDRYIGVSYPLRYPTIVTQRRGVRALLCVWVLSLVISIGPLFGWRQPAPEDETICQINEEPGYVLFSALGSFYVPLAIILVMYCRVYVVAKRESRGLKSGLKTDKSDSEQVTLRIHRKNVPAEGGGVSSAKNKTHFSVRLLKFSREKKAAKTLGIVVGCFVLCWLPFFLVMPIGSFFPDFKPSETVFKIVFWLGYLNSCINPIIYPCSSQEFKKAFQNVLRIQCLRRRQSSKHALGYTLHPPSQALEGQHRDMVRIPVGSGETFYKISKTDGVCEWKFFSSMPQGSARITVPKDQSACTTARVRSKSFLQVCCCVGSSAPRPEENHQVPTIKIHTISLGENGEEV

[9] = target: T2, Alpha-1B adrenergic receptor (Rattus norvegicus) (UniProt P15823); test: Antagonist activity at alpha-1b adrenergic receptor in Wistar rat spleen assessed as inhibition of (-)-phenylephrine-induced contraction; assay type: tissue-based
T2 sequence (whole entry): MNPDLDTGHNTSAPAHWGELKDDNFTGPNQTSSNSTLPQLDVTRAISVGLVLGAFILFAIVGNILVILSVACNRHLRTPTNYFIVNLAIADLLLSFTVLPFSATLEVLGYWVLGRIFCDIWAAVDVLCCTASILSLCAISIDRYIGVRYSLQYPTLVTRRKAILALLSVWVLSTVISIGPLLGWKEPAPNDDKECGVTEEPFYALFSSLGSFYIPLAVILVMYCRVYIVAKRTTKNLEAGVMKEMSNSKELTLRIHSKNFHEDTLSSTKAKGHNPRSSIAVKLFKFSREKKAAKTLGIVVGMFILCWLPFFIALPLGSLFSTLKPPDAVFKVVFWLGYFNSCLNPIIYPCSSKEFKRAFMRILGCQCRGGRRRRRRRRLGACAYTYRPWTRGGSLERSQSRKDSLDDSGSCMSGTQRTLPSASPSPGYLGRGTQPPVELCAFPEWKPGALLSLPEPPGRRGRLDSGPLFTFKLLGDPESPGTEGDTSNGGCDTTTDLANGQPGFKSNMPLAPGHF

[10] = target: T3, Alpha-1A adrenergic receptor (Homo sapiens, UniProt P35348); test: biochemical
T3 sequence (P35348 whole entry): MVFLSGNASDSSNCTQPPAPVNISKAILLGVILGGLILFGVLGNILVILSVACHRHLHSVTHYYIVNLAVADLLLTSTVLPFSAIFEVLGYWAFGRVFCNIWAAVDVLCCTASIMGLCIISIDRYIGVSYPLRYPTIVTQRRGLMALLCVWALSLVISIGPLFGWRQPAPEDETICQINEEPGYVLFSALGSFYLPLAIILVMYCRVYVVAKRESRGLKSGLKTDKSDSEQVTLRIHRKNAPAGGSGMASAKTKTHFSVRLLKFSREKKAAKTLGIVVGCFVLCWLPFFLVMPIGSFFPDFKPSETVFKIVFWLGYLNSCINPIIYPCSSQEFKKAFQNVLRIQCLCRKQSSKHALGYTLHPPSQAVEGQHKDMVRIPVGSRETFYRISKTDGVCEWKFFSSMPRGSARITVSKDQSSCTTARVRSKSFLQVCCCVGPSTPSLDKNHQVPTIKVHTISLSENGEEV
Description: Displacement of [3H] prazosin from human cloned adrenoceptor alpha 1A expressed in CHO cell membrane incubated for 30 mins by liquid scintillation counting

[11] = target: T4, Alpha-1D adrenergic receptor (Rattus norvegicus) (UniProt P23944); test: Antagonist activity at alpha-1d adrenergic receptor in Wistar rat thoracic aorta assessed as inhibition of (-)-noradrenaline-induced contractions
T4 sequence (whole entry): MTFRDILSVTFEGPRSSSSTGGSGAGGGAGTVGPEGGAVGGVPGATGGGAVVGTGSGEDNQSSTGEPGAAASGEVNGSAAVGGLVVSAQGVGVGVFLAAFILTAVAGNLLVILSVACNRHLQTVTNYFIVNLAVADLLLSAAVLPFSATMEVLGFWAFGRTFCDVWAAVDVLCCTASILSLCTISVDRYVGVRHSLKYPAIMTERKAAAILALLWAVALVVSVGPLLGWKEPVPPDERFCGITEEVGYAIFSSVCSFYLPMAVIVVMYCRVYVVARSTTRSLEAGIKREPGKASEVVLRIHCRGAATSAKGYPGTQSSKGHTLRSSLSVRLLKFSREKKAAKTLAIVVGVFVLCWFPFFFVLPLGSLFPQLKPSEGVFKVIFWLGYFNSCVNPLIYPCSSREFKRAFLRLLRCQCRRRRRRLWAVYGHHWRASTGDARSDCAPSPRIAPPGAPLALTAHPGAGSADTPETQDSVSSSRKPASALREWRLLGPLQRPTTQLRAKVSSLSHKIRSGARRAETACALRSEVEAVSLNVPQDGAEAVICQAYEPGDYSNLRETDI

[12] = target: T5, 5-hydroxytryptamine receptor 1A (Homo sapiens, UniProt P08908); test: Displacement of [3H]8-OH-DPAT from human cloned 5HT-1AR transfected in HeLa cells incubated for 30 mins by liquid scintillation counter; assay type: cell-based
T5 sequence (P08908 whole entry): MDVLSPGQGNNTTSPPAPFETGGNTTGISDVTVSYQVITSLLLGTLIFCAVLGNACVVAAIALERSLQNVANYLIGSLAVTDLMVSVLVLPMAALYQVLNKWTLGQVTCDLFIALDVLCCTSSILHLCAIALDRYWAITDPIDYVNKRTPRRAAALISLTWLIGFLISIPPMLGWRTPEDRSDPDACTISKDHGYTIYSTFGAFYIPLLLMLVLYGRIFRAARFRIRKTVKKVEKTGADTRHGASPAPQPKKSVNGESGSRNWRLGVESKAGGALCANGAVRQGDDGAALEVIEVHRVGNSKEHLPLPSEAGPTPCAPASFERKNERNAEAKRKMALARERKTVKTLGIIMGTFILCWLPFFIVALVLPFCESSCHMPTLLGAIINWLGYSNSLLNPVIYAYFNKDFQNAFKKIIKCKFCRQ

[13] = target: T6, Alpha-1D adrenergic receptor (Homo sapiens, UniProt P25100); test: biochemical
T6 sequence (P25100 whole entry): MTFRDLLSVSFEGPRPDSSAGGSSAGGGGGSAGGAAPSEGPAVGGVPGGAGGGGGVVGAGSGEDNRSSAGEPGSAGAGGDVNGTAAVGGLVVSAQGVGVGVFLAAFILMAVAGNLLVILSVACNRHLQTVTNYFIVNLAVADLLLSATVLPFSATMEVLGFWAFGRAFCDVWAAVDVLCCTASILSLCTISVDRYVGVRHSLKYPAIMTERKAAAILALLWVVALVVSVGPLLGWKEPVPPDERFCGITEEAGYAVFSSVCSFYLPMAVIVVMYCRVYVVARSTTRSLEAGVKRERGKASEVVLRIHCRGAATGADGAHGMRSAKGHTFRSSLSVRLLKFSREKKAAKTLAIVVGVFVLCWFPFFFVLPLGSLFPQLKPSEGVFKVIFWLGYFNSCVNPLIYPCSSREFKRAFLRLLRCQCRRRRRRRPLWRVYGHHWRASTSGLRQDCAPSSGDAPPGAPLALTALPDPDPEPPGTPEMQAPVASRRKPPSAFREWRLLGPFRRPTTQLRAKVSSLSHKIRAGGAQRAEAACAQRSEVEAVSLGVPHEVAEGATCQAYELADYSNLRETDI
Description: Displacement of [3H] prazosin from human cloned adrenoceptor alpha 1D expressed in CHO cell membrane incubated for 30 mins by liquid scintillation counter

[14] = target: T7, Alpha-1B adrenergic receptor (Homo sapiens, UniProt P35368); test: Displacement of [3H] prazosin from human cloned adrenoceptor alpha 1B expressed in CHO cell membrane incubated for 30 mins by liquid scintillation counter
T7 sequence (P35368 whole entry): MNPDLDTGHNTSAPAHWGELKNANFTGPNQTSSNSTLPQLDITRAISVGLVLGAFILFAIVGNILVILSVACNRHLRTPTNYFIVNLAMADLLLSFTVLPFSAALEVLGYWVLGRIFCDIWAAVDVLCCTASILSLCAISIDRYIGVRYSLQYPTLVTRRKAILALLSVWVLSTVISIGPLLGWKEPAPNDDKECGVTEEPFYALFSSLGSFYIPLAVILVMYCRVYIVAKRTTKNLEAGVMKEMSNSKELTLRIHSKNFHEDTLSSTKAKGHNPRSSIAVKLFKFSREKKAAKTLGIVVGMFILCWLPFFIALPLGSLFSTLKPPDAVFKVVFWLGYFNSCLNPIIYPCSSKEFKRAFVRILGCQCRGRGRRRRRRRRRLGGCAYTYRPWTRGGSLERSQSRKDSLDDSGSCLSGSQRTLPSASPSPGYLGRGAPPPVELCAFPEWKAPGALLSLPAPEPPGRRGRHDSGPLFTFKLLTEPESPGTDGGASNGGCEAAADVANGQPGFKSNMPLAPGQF

Rattus norvegicus [15] = species: Rattus norvegicus; test: Selectivity for antagonist activity at Wistar rat thoracic aorta alpha 1D adrenoceptor over antagonist activity at Wistar rat spleen alpha 1B adrenoceptor
[16] = target: T8, 5-hydroxytryptamine receptor 1A (Homo sapiens) (UniProt P08908); details: HeLa
T8 sequence (whole entry): T5 sequence (P08908 whole entry)
Description: Agonist activity at human recombinant 5HT1A receptor expressed in human HeLa cells assessed as increase in [35S]GTPgammaS binding incubated for 20 mins by liquid scintillation counter

Rattus norvegicus [17] = species: Rattus norvegicus; test: Selectivity for antagonist activity at Wistar rat thoracic aorta alpha 1D adrenoceptor over antagonist activity at Wistar rat prostate vas deferens alpha 1A adrenoceptor

Row | SMILES | Activity (Rattus norvegicus [1]) | Activity (Rattus norvegicus [2]) | half-life [3] | Activity (Rattus norvegicus [4]) | Activity (Rattus norvegicus [5]) | Activity (Rattus norvegicus [6]) | inhibition (Rattus norvegicus [7]) | pKb [8] | pKb [9] | Ki [10] | pKb [11] | Ki [12] | Ki [13] | Ki [14] | Ratio pKb (Rattus norvegicus [15]) | pD2 [16] | Ratio pKb (Rattus norvegicus [17])
1 | Br.CCCN(CCC)C1CCc2cccc(O)c2C1 (stereo unspecified) | 19% | inactive | 27 min | inactive | Active | inactive | Active |  |  |  |  |  |  |  |  |  | 
2 | c1ccc(OCCNCC[C@@H]2CO[C@H](C(c3ccccc3)c3ccccc3)O2)cc1 (relative stereo) |  |  |  |  |  |  |  | 6.14 | 6.43 | 170 nM | 7.15 | 60.3 nM | 75.9 nM | 107 nM |  |  | 
3 | c1ccc(OCCNCC2COC(c3ccccc3)(c3ccccc3)O2)cc1 (stereo unspecified) |  |  |  |  |  |  |  | 6.16 | 5.86 |  | 8.37 |  |  |  | > 100 | 8.8 | > 100
4 | COc1ccccc1OCCNCC1COC(c2ccccc2)(c2ccccc2)O1 (stereo unspecified) |  |  |  |  |  |  |  | 7.53 | 7.36 |  | 8.65 |  |  |  |  | 7.36 | 
5 | COc1ccccc1OCCNC[C@H]1CO[C@H](C(c2ccccc2)c2ccccc2)O1 (relative stereo) |  |  |  |  |  |  |  | 6.78 | 6.82 | 30.9 nM | 7.64 | 2 nM | 7.08 nM | 27.5 nM |  |  | 
6 | c1ccc(OCCNC[C@H]2CO[C@H](C(c3ccccc3)c3ccccc3)O2)cc1 (relative stereo) |  |  |  |  |  |  |  | 6.29 | 6.26 | 120 nM | 6.7 | 5.25 nM | 87.1 nM | 102 nM |  |  | 
7 | c1ccc(OCCNCC[C@H]2CO[C@H](C(c3ccccc3)c3ccccc3)O2)cc1 (relative stereo) |  |  |  |  |  |  |  | 5.71 | 6.66 | 89.1 nM | 7.22 | 57.5 nM | 95.5 nM | 166 nM |  |  | 
8 | c1ccc(OCCNCCC2COC(c3ccccc3)(c3ccccc3)O2)cc1 (stereo unspecified) |  |  |  |  |  |  |  | 6.34 | 6.49 | 58.9 nM | 7.04 | 724 nM | 30.2 nM | 95.5 nM |  |  | 
9 | c1ccc(OCCNC[C@@H]2CO[C@H](C(c3ccccc3)c3ccccc3)O2)cc1 (relative stereo) |  |  |  |  |  |  |  | 6.22 | 6.83 | 427 nM | 6.72 | 11.5 nM | 29.5 nM | 102 nM |  |  | 
10 | COc1ccccc1OCCNC[C@@H]1CO[C@H](C(c2ccccc2)c2ccccc2)O1 (relative stereo) |  |  |  |  |  |  |  | 6.16 | 6.75 | 977 nM | 7.52 | 3.16 nM | 4.37 nM | 37.2 nM |  |  | 
